Consider 9 compounds from patent publication US10233188B2, “CDK2/4/6 inhibitors” (priority 2016, dated 2019).

Experiment [1] addresses CDK2/Cyclin E1 (Homo sapiens (Human), UniProt P24941). The experiment can be described thus: biochemical. The following applies: CDK2_Ki (nM), phosphorylated CDK2/Cyclin E1, 150 μM ATP, Morrison tight-binding fit.
Method: The assay was initiated with the addition of ATP, following a fifteen minutes pre-incubation of enzyme and inhibitor at room temperature in the reaction mixture. The reaction was stopped after 45 minutes at room temperature by the addition of 50 μL of 80 mM EDTA, pH 7.5.
Experiment [2] concerns the target CDK6/Cyclin D1 (Homo sapiens (Human), UniProt Q00534). The experiment is described as follows: biochemical. To be noted: CDK6_Ki (nM), non-phosphorylated CDK6/Cyclin D1, 2 mM ATP, Morrison fit.

The Ki is the equilibrium dissociation constant of an inhibitor or competing ligand from its target. A low value points to a stronger hold on the target.

Sequence of CDK6/Cyclin D1 (Q00534 whole entry): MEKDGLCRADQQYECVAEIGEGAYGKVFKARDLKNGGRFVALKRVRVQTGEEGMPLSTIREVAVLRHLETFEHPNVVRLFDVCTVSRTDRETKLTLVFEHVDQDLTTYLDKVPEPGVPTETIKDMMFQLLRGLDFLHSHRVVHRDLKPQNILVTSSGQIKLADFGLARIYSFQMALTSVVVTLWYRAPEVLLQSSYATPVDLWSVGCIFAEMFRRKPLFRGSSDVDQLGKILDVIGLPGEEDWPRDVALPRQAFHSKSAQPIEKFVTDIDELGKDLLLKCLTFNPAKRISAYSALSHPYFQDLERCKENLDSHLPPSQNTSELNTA
Sequence of CDK6/Cyclin D1 (P24385 whole entry partner): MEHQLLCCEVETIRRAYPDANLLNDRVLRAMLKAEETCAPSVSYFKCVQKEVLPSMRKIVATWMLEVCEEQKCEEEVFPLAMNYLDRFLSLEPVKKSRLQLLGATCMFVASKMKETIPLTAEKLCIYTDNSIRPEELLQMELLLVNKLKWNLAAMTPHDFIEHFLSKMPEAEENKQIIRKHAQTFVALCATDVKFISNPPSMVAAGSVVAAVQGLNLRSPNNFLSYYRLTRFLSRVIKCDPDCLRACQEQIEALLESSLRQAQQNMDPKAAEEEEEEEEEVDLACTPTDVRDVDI

On to `Cn1cc(S(=O)(=O)N2CCC(Nc3ncc4ccc(=O)n([C@H]5CCC[C@]5(C)O)c4n3)CC2)cn1` (single isomer, unassigned) [Example 83, (+)-8-[(1R*,2R*)-2-hydroxy-2-methylcyclopentyl]-2-({1-[(1-methyl-1H-pyrazol-4-yl)sulfonyl]piperidin-4-yl}amino)pyrido[2,3-d]pyrimidin-7(8H)-one], for which the Ki in experiment [1] was found to be 1.98 nM; in experiment [2] it was 9.77 nM.

As to `Cn1cnc(S(=O)(=O)N2CCC(Nc3ncc4ccc(=O)n([C@@H]5CCC[C@@]5(C)O)c4n3)CC2)c1` (single isomer, unassigned) [Example 84, (−)-8-[(1R*,2R*)-2-hydroxy-2-methylcyclopentyl]-2-({1-[(1-methyl-1H-imidazol-4-yl)sulfonyl]piperidin-4-yl}amino)pyrido[2,3-d]pyrimidin-7(8H)-one], the figures for the Ki in experiment [1] and in experiment [2] were 0.08 nM and 0.92 nM, respectively.

Regarding `Cn1cnc(S(=O)(=O)N2CCC(Nc3ncc4ccc(=O)n([C@H]5CCC[C@]5(C)O)c4n3)CC2)c1` (single isomer, unassigned) [Example 85, (+)-8-[(1R*,2R*)-2-hydroxy-2-methylcyclopentyl]-2-({1-[(1-methyl-1H-imidazol-4-yl)sulfonyl]piperidin-4-yl}amino)pyrido[2,3-d]pyrimidin-7(8H)-one], the values for the Ki in experiment [1] and in experiment [2] were 1.98 nM and 8.29 nM, respectively.

Take `C[C@@]1(O)CCC[C@H]1n1c(=O)ccc2cnc(NC3CCN(S(=O)(=O)CC(F)(F)F)CC3)nc21` (single isomer, unassigned) [Example 86, (−)-8-[(1R*,2R*)-2-hydroxy-2-methylcyclopentyl]-2-({1-[(2,2,2-trifluoroethyl)sulfonyl]piperidin-4-yl}amino)pyrido[2,3-d]pyrimidin-7(8H)-one]: the inhibitory constant (Ki) came out at 0.45 nM in experiment [1] and 1.6 nM in experiment [2].

As for `C[C@]1(O)CCC[C@@H]1n1c(=O)ccc2cnc(NC3CCN(S(=O)(=O)CC(F)(F)F)CC3)nc21` (single isomer, unassigned) [Example 87, (+)-8-[(1R*,2R*)-2-hydroxy-2-methylcyclopentyl]-2-({1-[(2,2,2-trifluoroethyl)sulfonyl]piperidin-4-yl}amino)pyrido[2,3-d]pyrimidin-7(8H)-one], the Ki is 4.38 nM in experiment [1] and 8.23 nM in experiment [2].

Turning to `C[C@@]1(O)CCC[C@H]1n1c(=O)ccc2cnc(NC3CCN(S(=O)(=O)C(F)(F)F)CC3)nc21` (single isomer, unassigned) [Example 88, (−)-8-[(1R*,2R*)-2-hydroxy-2-methylcyclopentyl]-2-({1-[(trifluoromethyl)sulfonyl]piperidin-4-yl}amino)pyrido[2,3-d]pyrimidin-7(8H)-one], the Ki was found to be 1.34 nM in experiment [1] and 1.99 nM in experiment [2].

On to `C[C@@]1(O)CCC[C@H]1n1c(=O)ccc2cnc(NC3CCN(S(=O)(=O)CC4CC4)CC3)nc21` (single isomer, unassigned) [Example 90, (−)-2-({1-[(cyclopropylmethyl)sulfonyl]piperidin-4-yl}amino)-8-[(1R*,2R*)-2-hydroxy-2-methylcyclopentyl]pyrido[2,3-d]pyrimidin-7(8H)-one], for which the Ki amounted to 0.25 nM in experiment [1] and 0.88 nM in experiment [2].

`C[C@]1(O)CCC[C@@H]1n1c(=O)ccc2cnc(NC3CCN(S(=O)(=O)CC4CC4)CC3)nc21` (single isomer, unassigned) [Example 91, (+)-2-({1-[(cyclopropylmethyl)sulfonyl]piperidin-4-yl}amino)-8-[(1R*,2R*)-2-hydroxy-2-methylcyclopentyl]pyrido[2,3-d]pyrimidin-7(8H)-one]: the results for the inhibitory constant (Ki) in experiment [1] and in experiment [2] were 3.01 nM and 2.72 nM, respectively.

With `CNS(=O)(=O)N1CCC(Nc2ncc3cc(C)c(=O)n([C@@H]4CCC[C@@]4(C)O)c3n2)CC1` (single isomer, unassigned) [Example 94, (−)-4-({8-[(1R*,2R*)-2-hydroxy-2-methylcyclopentyl]-6-methyl-7-oxo-7,8-dihydropyrido[2,3-d]pyrimidin-2-yl}amino)-N-methylpiperidine-1-sulfonamide], the Ki in experiment [1] came out at 0.09 nM; in experiment [2], 0.33 nM.
